Columns and labels:
[1] = test system: ragweed; assay: Test C postemergence; format: in vivo, Ambrosia artemisiifolia; settings: postemergence, 10 days
Summary of the method: (§1)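 Soil-applied (pre) and foliar (post, 1–2 leaf, 2–10 cm) sprays; surfactant-containing non-phytotoxic solvent vehicle; loam/sand substrate. Readout: visual % control at 10 d, greenhouse, versus untreated.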

[2] = test system: soybean; assay: Test C preemergence; format: in vivo, Glycine max; settings: preemergence, 0 to 100 scale (0 no effect, 100 complete control)
Summary of the method: as §1

[3] = test system: kochia; assay: Test C postemergence; format: in vivo, Bassia scoparia; settings: postemergence, 10 days
Summary of the method: as §1

[4] = test system: ryegrass, Italian; assay: Test C postemergence; format: in vivo, Lolium multiflorum; settings: postemergence, 10 days
Summary of the method: as §1

[5] = test system: kochia; assay: Test C preemergence; format: in vivo, Bassia scoparia; settings: preemergence, 0 to 100 scale (0 no effect, 100 complete control)
Summary of the method: as §1

[6] = test system: blackgrass; assay: Test C preemergence; format: in vivo, Alopecurus myosuroides; settings: preemergence, 0 to 100 scale (0 no effect, 100 complete control)
Summary of the method: as §1

[7] = test system: pigweed, palmer; assay: Test C postemergence; format: in vivo, Amaranthus palmeri; settings: postemergence, 10 days
Summary of the method: as §1

[8] = test system: galium; assay: Test C postemergence; format: in vivo, Galium aparine; settings: postemergence, 10 days
Summary of the method: as §1

[9] = test system: rice; assay: Test D flooded paddy test; format: in vivo, Oryza sativa; settings: 250 g ai/ha, applied to paddy water, visual rating after 13 to 14 days, scale 0 to 100 (0 no effect, 100 complete control)
Summary of the method: (§2)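 At the 2-leaf stage, floodwater 3 cm deep received the test compound; that depth persisted throughout. Plants scored visually 13 to 14 days on, 0 (no effect) to 100 (complete control), dash indicating no result.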

[10] = test system: foxtail, giant; assay: Test C preemergence; format: in vivo, Setaria faberi; settings: preemergence, 0 to 100 scale (0 no effect, 100 complete control)
Summary of the method: as §1

[11] = test system: blackgrass; assay: Test C postemergence; format: in vivo, Alopecurus myosuroides; settings: postemergence, 10 days
Summary of the method: as §1

[12] = test system: oat, wild; assay: Test C postemergence; format: in vivo, Avena fatua; settings: postemergence, 10 days
Summary of the method: as §1

[13] = test system: corn; assay: Test C preemergence; format: in vivo, Zea mays; settings: preemergence, 0 to 100 scale (0 no effect, 100 complete control)
Summary of the method: as §1

[14] = test system: ryegrass, Italian; assay: Test C preemergence; format: in vivo, Lolium multiflorum; settings: preemergence, 0 to 100 scale (0 no effect, 100 complete control)
Summary of the method: as §1

[15] = test system: goosegrass; assay: Test C postemergence; format: in vivo, Eleusine indica; settings: postemergence, 10 days
Text: (§3) Seeds of plant species selected from barnyardgrass (Echinochloa crusgalli), blackgrass (Alopecurus myosuroides), corn (Zea mays), foxtail, giant (giant foxtail, Setaria faberi), green foxtail (Setaria viridis), goosegrass (Eleusine indica), kochia (Bassia scoparia), oat, wild (wild oat, Avena fatua), pigweed, palmer (palmer amaranth, palmer pigweed, Amaranthus palmeri), Pigweed, Redroot (redroot pigweed, Amaranthus retroflexus), ragweed (common ragweed, Ambrosia artemisiifolia), ryegrass, Italian ([…] ryegrass, Lolium multiflorum), soybean (Glycine max), and wheat (Triticum aestivum) were planted into a blend of loam soil and sand and treated preemergence with a directed soil spray using test chemicals formulated in a non-phytotoxic solvent mixture which included a surfactant. At the same time, plants selected from these crops and weed species and also galium (catchweed bedstraw, Galium aparine) and horseweed (Erigeron canadensis) were planted in pots containing the same blend of loam soil and sand and treated with postemergence applications of test chemicals formulated in the same manner. Plants ranged in height from 2 to 10 cm and were in the one- to two-leaf stage for the postemergence treatment. Treated plants and untreated controls were maintained in a greenhouse for 10 days, after which time all treated plants were compared to untreated controls and visually evaluated for injury. Plant response ratings, summarized in Table C, are based on a 0 to 100 scale where 0 is no effect and 100 is complete control. A dash (-) response means no test result.

[16] = test system: wheat; assay: Test C preemergence; format: in vivo, Triticum aestivum; settings: preemergence, 0 to 100 scale (0 no effect, 100 complete control)
Summary of the method: as §1

[17] = test system: pigweed, palmer; assay: Test C preemergence; format: in vivo, Amaranthus palmeri; settings: preemergence, 0 to 100 scale (0 no effect, 100 complete control)
Summary of the method: as §1

[18] = test system: ducksalad; assay: Test D flooded paddy test; format: in vivo, Heteranthera limosa; settings: 250 g ai/ha, applied to paddy water, visual rating after 13 to 14 days, scale 0 to 100 (0 no effect, 100 complete control)
Summary of the method: as §2

[19] = test system: barnyardgrass; assay: Test D flooded paddy test; format: in vivo, Echinochloa crus-galli; settings: 250 g ai/ha, applied to paddy water, visual rating after 13 to 14 days, scale 0 to 100 (0 no effect, 100 complete control)
Summary of the method: as §2

[20] = test system: sedge, umbrella; assay: Test D flooded paddy test; format: in vivo, Cyperus difformis; settings: 250 g ai/ha, applied to paddy water, visual rating after 13 to 14 days, scale 0 to 100 (0 no effect, 100 complete control)
Summary of the method: as §2

[21] = test system: goosegrass; assay: Test C preemergence; format: in vivo, Eleusine indica; settings: preemergence, 0 to 100 scale (0 no effect, 100 complete control)
Text: as §3

[22] = test system: soybean; assay: Test C postemergence; format: in vivo, Glycine max; settings: postemergence, 10 days
Summary of the method: as §1

[23] = test system: oat, wild; assay: Test C preemergence; format: in vivo, Avena fatua; settings: preemergence, 0 to 100 scale (0 no effect, 100 complete control)
Summary of the method: as §1

[24] = test system: corn; assay: Test C postemergence; format: in vivo, Zea mays; settings: postemergence, 10 days
Summary of the method: as §1

[25] = test system: wheat; assay: Test C postemergence; format: in vivo, Triticum aestivum; settings: postemergence, 10 days
Summary of the method: as §1

[26] = test system: ragweed; assay: Test C preemergence; format: in vivo, Ambrosia artemisiifolia; settings: preemergence, 0 to 100 scale (0 no effect, 100 complete control)
Summary of the method: as §1

[27] = test system: foxtail, giant; assay: Test C postemergence; format: in vivo, Setaria faberi; settings: postemergence, 10 days
Summary of the method: as §1

[28] = 125 g ai/ha, 0 to 100 scale, 0 no effect, 100 complete control
[29] = 500 g ai/ha, 0 to 100 scale (0 no effect, 100 complete control)

Cc1cccc2c1O[C@@H](C)CN2C(=O)c1cccc(-n2cnc(-c3ccccc3)n2)c1 [Compound 283]
Plant response rating, Ragweed [1, 28]: 10
Plant response rating, Ragweed [1, 29]: 50
Soybean plant response rating ([2]; 500 g ai/ha): 30
Soybean plant response rating ([2]; Test C, 125 g ai/ha): 0
Plant response rating, Kochia [3, 28]: 70
Plant response rating, Kochia [3, 29]: 80
Plant response rating, Ryegrass, Italian [4, 28]: 20
Plant response rating, Ryegrass, Italian [4, 29]: 50
Kochia plant response rating ([5]; 500 g ai/ha): 50
Kochia plant response rating ([5]; Test C, 125 g ai/ha): 20
Blackgrass plant response rating ([6]; 500 g ai/ha): 40
Blackgrass plant response rating ([6]; Test C, 125 g ai/ha): 40
Plant response rating, Pigweed, Palmer [7, 28]: 60
Plant response rating, Pigweed, Palmer [7, 29]: 80
Plant response rating, Galium [8, 28]: 50
Plant response rating, Galium [8, 29]: 80
Plant response rating, Rice (Flood) [9]: 0
Foxtail, Giant plant response rating ([10]; 500 g ai/ha): 90
Foxtail, Giant plant response rating ([10]; Test C, 125 g ai/ha): 60
Plant response rating, Blackgrass [11, 28]: 10
Plant response rating, Blackgrass [11, 29]: 40
Plant response rating, Oat, Wild [12, 28]: 10
Plant response rating, Oat, Wild [12, 29]: 10
Corn plant response rating ([13]; 500 g ai/ha): 0
Corn plant response rating ([13]; Test C, 125 g ai/ha): 0
Ryegrass, Italian plant response rating ([14]; 500 g ai/ha): 100
Ryegrass, Italian plant response rating ([14]; Test C, 125 g ai/ha): 70
Plant response rating, Goosegrass [15, 28]: 10
Plant response rating, Goosegrass [15, 29]: 40
Wheat plant response rating ([16]; 500 g ai/ha): 10
Wheat plant response rating ([16]; Test C, 125 g ai/ha): 0
Pigweed, Palmer plant response rating ([17]; 500 g ai/ha): 100
Pigweed, Palmer plant response rating ([17]; Test C, 125 g ai/ha): 30
Plant response rating, Ducksalad (Flood) [18]: 0
Plant response rating, Barnyardgrass (Flood) [19]: 0
Plant response rating, Sedge, Umbrella (Flood) [20]: 0
Goosegrass plant response rating ([21]; 500 g ai/ha): 100
Goosegrass plant response rating ([21]; Test C, 125 g ai/ha): 80
Plant response rating, Soybean [22, 28]: 90
Plant response rating, Soybean [22, 29]: 90
Oat, Wild plant response rating ([23]; 500 g ai/ha): 10
Oat, Wild plant response rating ([23]; Test C, 125 g ai/ha): 20
Plant response rating, Corn [24, 28]: 20
Plant response rating, Corn [24, 29]: 20
Plant response rating, Wheat [25, 28]: 10
Plant response rating, Wheat [25, 29]: 10
Ragweed plant response rating ([26]; 500 g ai/ha): 0
Ragweed plant response rating ([26]; Test C, 125 g ai/ha): 0
Plant response rating, Foxtail, Giant [27, 28]: 20
Plant response rating, Foxtail, Giant [27, 29]: 90

Reference: patent publication US20260262643A1, “HERBICIDAL BENZOXAZINES” (FMC CORPORATION, priority 2022, published 2026)
